Assay results published in patent US20120214862A1, “MODULATION OF FACTOR 7 EXPRESSION” (ISIS Pharmaceuticals, Inc., priority 2009, published 2012).
In the oligonucleotide strings, read from the 5' end, every base follows the letter of its sugar. An asterisk marks phosphorothioate; unmarked linkages are phosphodiester. Other units and linkages are bracketed, terminal groups are in braces. A string of capitals states the bases alone. e = 2'-O-(2-methoxyethyl) (MOE); [5mC] = 5-methylcytosine; d = 2'-deoxy (DNA)

Test system: human Factor 7 mRNA
Assay: Inhibition of human Factor 7 mRNA by 2-10-2 MOE shortmers in HepB3 cells, electroporation, 1,000 nM
Assay type: cell-based
Settings: electroporation, 1,000 nM oligonucleotide, approximately 24 hours, relative to untreated control cells
From the text: Short antisense oligonucleotides (shortmers) were designed to target a Factor 7 nucleic acid. The shortmers in Table 17 were designed as 2-10-2 MOE gapmers. The gapmers are 14 nucleotides in length, wherein the central gap segment is comprised of 10 2′-deoxynucleotides and is flanked on both sides (in the 5′ and 3′ directions) by wings comprising 2 nucleotides each. Each nucleotide in the 5′ wing segment and each nucleotide in the 3′ wing segment has a 2′-MOE modification. The internucleoside linkages throughout each gapmer are phosphorothioate (P═S) linkages. All cytidine residues throughout each gapmer are 5-methylcytidines.
Shortmers were evaluated for their ability to reduce human Factor 7 mRNA in HepB3 cells and compared with one 5-10-5 chimeric oligonucleotide from Table 16, ISIS 407939. HepB3 cells at a density of 20,000 cells per well in a 96-well plate were transfected using electroporation with 1,000 nM of antisense oligonucleotide. After a treatment period of approximately 24 hours, RNA was isolated from the cells and Factor 7 mRNA levels were measured by real-time RT-PCR, as described herein. Factor 7 mRNA levels were adjusted according to total RNA content as measured by RIBOGREEN®. Results are presented in Table 17 as percent inhibition of Factor 7 mRNA, relative to untreated control cells. ISIS 407939 is the first oligonucleotide in […] to which the shortmers were compared, and is marked by an asterisk (*).

Substance | % inhibition of human Factor 7 mRNA
435699 (antisense eG*e[5mC]*d[5mC]*d[5mC]*d[5mC]*dA*dG*d[5mC]*dT*dG*dA*d[5mC]*eG*eA) [compound 435699] | 48%
435637 (antisense eT*eG*dA*dA*dG*d[5mC]*d[5mC]*d[5mC]*dA*dA*dG*d[5mC]*eA*eG) [compound 435637] | 11%
435766 (antisense eG*e[5mC]*dA*d[5mC]*d[5mC]*dT*dG*d[5mC]*dA*dG*d[5mC]*d[5mC]*eA*eG) [compound 435766] | 51%
435788 (antisense e[5mC]*e[5mC]*dT*dG*dT*dG*dA*dG*dT*dG*dT*dG*eA*eG) [compound 435788] | 20%
435782 (antisense e[5mC]*eG*dT*dG*d[5mC]*dG*d[5mC]*dT*d[5mC]*dA*dG*d[5mC]*eT*e[5mC]) [compound 435782] | 36%
435501 (antisense eT*eA*d[5mC]*dT*dG*dG*dG*dA*dG*dA*d[5mC]*d[5mC]*e[5mC]*eT) [compound 435501] | 51%
435734 (antisense eA*eT*dG*d[5mC]*dT*dT*d[5mC]*dT*dG*dA*dA*dT*eT*eG) [compound 435734] | 16%
435771 (antisense eG*eT*d[5mC]*dA*dT*dA*dA*dG*dG*d[5mC]*d[5mC]*dA*eT*eG) [compound 435771] | 13%
435636 (antisense eG*eA*dG*dA*d[5mC]*d[5mC]*dA*dT*dG*dA*dT*dG*eA*eA) [compound 435636] | 13%
435796 (antisense eT*eG*dA*d[5mC]*d[5mC]*dA*d[5mC]*dA*d[5mC]*dA*dT*dT*eT*e[5mC]) [compound 435796] | 30%
435483 (antisense e[5mC]*eT*dG*dG*dG*dT*d[5mC]*dA*dT*d[5mC]*dA*dG*e[5mC]*e[5mC]) [compound 435483] | 82%
435781 (antisense eA*e[5mC]*d[5mC]*dA*d[5mC]*dG*d[5mC]*dG*dG*dT*dG*dG*eT*eG) [compound 435781] | 0%
435643 (antisense e[5mC]*eT*dT*dG*d[5mC]*dA*dG*dG*dA*dG*d[5mC]*d[5mC]*e[5mC]*e[5mC]) [compound 435643] | 51%
435825 (antisense e[5mC]*eT*dG*dG*dT*dT*dT*dT*dG*dG*dA*dG*eG*eA) [compound 435825] | 0%
435804 (antisense e[5mC]*eA*dG*dG*dG*dA*d[5mC]*dT*d[5mC]*dT*d[5mC]*dA*eG*e[5mC]) [compound 435804] | 26%
435681 (antisense eA*eT*dG*dA*d[5mC]*d[5mC]*dT*dG*d[5mC]*dG*d[5mC]*d[5mC]*eA*e[5mC]) [compound 435681] | 40%
435815 (antisense e[5mC]*eT*d[5mC]*dT*dT*d[5mC]*d[5mC]*dG*dA*dG*d[5mC]*dA*eG*e[5mC]) [compound 435815] | 59%
435762 (antisense e[5mC]*eA*dG*dG*dT*dG*dT*dT*dA*dA*dG*dG*eT*eG) [compound 435762] | 0%
435748 (antisense eT*e[5mC]*d[5mC]*d[5mC]*dA*dG*dG*dG*dT*d[5mC]*dT*d[5mC]*eT*eG) [compound 435748] | 18%
435733 (antisense e[5mC]*eT*dG*dA*dA*dT*dT*dG*dT*d[5mC]*dT*dG*eA*eA) [compound 435733] | 5%
435798 (antisense eA*eG*d[5mC]*d[5mC]*dA*dG*dA*d[5mC]*dT*dT*dT*d[5mC]*e[5mC]*eT) [compound 435798] | 54%
435819 (antisense eT*eT*dT*dG*dT*d[5mC]*d[5mC]*dA*dG*dT*dA*dA*eG*eA) [compound 435819] | 1%
435697 (antisense eA*eG*dT*dA*dG*d[5mC]*d[5mC]*dG*dG*d[5mC]*dA*d[5mC]*eA*eG) [compound 435697] | 53%
435689 (antisense eT*eT*d[5mC]*dG*dG*dG*d[5mC]*dA*dG*dG*d[5mC]*dA*eG*eA) [compound 435689] | 23%
435777 (antisense e[5mC]*eT*dG*dA*dG*dG*dA*dT*dG*d[5mC]*dA*dG*eG*e[5mC]) [compound 435777] | 53%
435806 (antisense eT*eG*dA*d[5mC]*d[5mC]*d[5mC]*d[5mC]*dA*d[5mC]*dA*dG*dG*eG*eA) [compound 435806] | 7%

Substance | % inhibition of human Factor 7 mRNA
435497 (antisense eG*eG*dG*dA*dG*dA*d[5mC]*d[5mC]*d[5mC]*dT*dG*dG*eT*eG) [compound 435497] | 27%
435776 (antisense eG*eG*dG*dA*d[5mC]*dA*d[5mC]*dT*d[5mC]*dA*d[5mC]*dA*e[5mC]*eT) [compound 435776] | 51%
435674 (antisense eA*eA*dA*d[5mC]*dA*dG*dT*dG*dG*dG*d[5mC]*d[5mC]*eG*e[5mC]) [compound 435674] | 34%
435670 (antisense e[5mC]*eA*dA*d[5mC]*dA*dG*dG*dA*d[5mC]*d[5mC]*dT*dG*e[5mC]*e[5mC]) [compound 435670] | 47%
435504 (antisense eA*eT*dG*dT*dA*d[5mC]*dT*dG*dG*dG*dA*dG*eA*e[5mC]) [compound 435504] | 8%
435805 (antisense eT*eG*dA*dA*dT*dT*dA*d[5mC]*dT*dG*dA*dA*e[5mC]*e[5mC]) [compound 435805] | 0%
435718 (antisense eG*e[5mC]*dT*d[5mC]*dG*d[5mC]*dA*dG*dG*dA*dG*dG*eA*e[5mC]) [compound 435718] | 26%
435769 (antisense eT*eT*d[5mC]*dT*dT*dT*dG*dA*dA*dA*dA*dA*eT*eA) [compound 435769] | 0%
435842 (antisense eA*eT*dT*dT*d[5mC]*d[5mC]*d[5mC]*dA*dT*dT*dG*dG*e[5mC]*eA) [compound 435842] | 0%
435775 (antisense eT*e[5mC]*dT*dG*dG*dA*dA*dG*dG*dA*dA*d[5mC]*eA*eG) [compound 435775] | 25%
435816 (antisense eT*e[5mC]*d[5mC]*dA*dA*dA*dG*dG*dA*d[5mC]*dA*dA*eG*eG) [compound 435816] | 4%
435696 (antisense e[5mC]*eA*dG*dA*dA*d[5mC]*dA*dT*dG*dT*dA*d[5mC]*eT*e[5mC]) [compound 435696] | 10%
435661 (antisense eG*eG*dA*d[5mC]*dA*d[5mC]*d[5mC]*d[5mC]*d[5mC]*dG*dT*d[5mC]*eT*eG) [compound 435661] | 18%
435744 (antisense e[5mC]*eT*dA*d[5mC]*dA*dG*d[5mC]*d[5mC]*dT*d[5mC]*dA*dA*eA*e[5mC]) [compound 435744] | 19%
435686 (antisense e[5mC]*eA*dG*dT*dG*dA*dG*dG*dA*d[5mC]*d[5mC]*dA*e[5mC]*eG) [compound 435686] | 31%
435655 (antisense eA*e[5mC]*dA*dG*d[5mC]*d[5mC]*dG*d[5mC]*d[5mC]*dG*dT*dT*e[5mC]*eT) [compound 435655] | 49%
435640 (antisense eT*eG*dT*dA*dA*dG*dA*dA*dA*dT*d[5mC]*d[5mC]*eA*eG) [compound 435640] | 2%
435489 (antisense e[5mC]*eT*dG*dG*dT*dG*dT*dA*d[5mC]*dA*d[5mC]*d[5mC]*e[5mC]*e[5mC]) [compound 435489] | 72%
435802 (antisense eG*eT*d[5mC]*dA*d[5mC]*d[5mC]*dT*dA*dG*dA*d[5mC]*d[5mC]*eA*eA) [compound 435802] | 61%
435493 (antisense eG*eA*d[5mC]*d[5mC]*d[5mC]*dT*dG*dG*dT*dG*dT*dA*e[5mC]*eA) [compound 435493] | 58%
435654 (antisense eG*e[5mC]*d[5mC]*dG*dT*dT*d[5mC]*dT*d[5mC]*dG*dT*dT*e[5mC]*eA) [compound 435654] | 71%
435669 (antisense eG*eG*dA*d[5mC]*d[5mC]*dT*dG*d[5mC]*d[5mC]*dA*dT*dG*eG*eA) [compound 435669] | 36%
435690 (antisense eG*eT*d[5mC]*d[5mC]*dG*dT*dT*d[5mC]*dG*dG*dG*d[5mC]*eA*eG) [compound 435690] | 55%
435755 (antisense eG*eG*dG*dA*d[5mC]*dT*d[5mC]*dA*dG*d[5mC]*dA*dA*eG*eA) [compound 435755] | 0%
435820 (antisense e[5mC]*eA*dT*d[5mC]*d[5mC]*dT*dA*dG*dT*d[5mC]*dA*d[5mC]*eT*eG) [compound 435820] | 19%
